Values after ≈ are worked out from the molar mass of the structure shown.

For data set [1], the system named is No. 04 Coronavirus. In words: Inhibition on No. 04 Coronavirus in HELA cells (CPE method). In kind it is cell-based. Conditions: 2 h.
Experimental: HELA cells were seeded on 96-well cultivation plates at the concentration of 400,000/ml and grown to monolayer at 37° C. in 5% CO2 incubator for 24 hours. After removal of cultivation liquid, coronavirus liquid were added to HELA cells and absorbed at 37° C. in 5% CO2 incubator for 2 hours. […] At the same time reference cells and reference virous were cultivated at 37° C. in 5% CO2 incubator for 5 to 7 days. Inverted microscope was used everyday to observe the cytopathic effect (CPE) of virus. The determination were ended according to the appearance of “+++-++++”. […] The determination was repeated three times.
Data set [2] concerns No. 04 Coronavirus. In words: organism not typed. The data set is classed as cell-based.
Experimental: HELA cells were seeded on 96-well cultivation plates at the concentration of 400,000/ml and grown to monolayer at 37° C. in 5% CO2 incubator for 24 hours. […] Then 100 TCID50coronavirus liquid were added to HELA cells. At the same time reference cell and reference virous were cultivated at 37° C. in 5% CO2 incubator for 5 to 7 days. At the same time normal cell reference and virous reference were cultivated at 37° C. in 5% CO2 incubator for 5 to 7 days. Inverted microscope was used everyday to observe the cytopathic effect (CPE) of virus. The determination were ended according to the appearance of “+++-++++”. […] The determination was repeated three times.
The subject of the next data set is HELA cell. In words: Toxicity to HELA cell (CPE, Reed-Muench). Conditions: 6 days. As for the experimental part: 1. Determination of the Toxicity of Recombinant Human Lysozyme to HELA Cell:
HELA cells were seeded on 96-well culture plates at the concentration of 400,000/mi and grown at 37° C. in a 5% CO2 incubator for 2 hours. 100 μl recombinant human lysozyme which were double-diluted from 6000 ug/ml to 11.7 ug/ml and positive reference medicine which were double-diluted from 6000 ug/ml to 11.7 ug/ml were respectively added to 3 wells per concentration. At the same time the reference cells were cultivated at 37° C. in a 5% CO2 incubator for 6 days. Inverted microscope was used everyday to observe the cytopathic effect (CPE). The cytopathic effect under 25% was recorded as “+”, the cytopathic effect under 26%˜50% was recorded as “++”, the cytopathic effect under 51%˜75% was recorded as “+++” and the cytopathic effect under 76%˜100% was recorded as “++++”. Drug median toxic dose (TD50) and minimum toxic dose (TD0) were calculated by using Reed-Muench method.

[3] abbreviates: read-out: minimum inhibitory concentration (MIC).
[4] abbreviates: HeLa, read-out: median inhibitory concentration (IC50).

In the case of `Nc1nc(O)c2ncn(COC(CO)CO)c2n1` [Ganciclovir, reference compound], the MIC with No. 04 Coronavirus [1] (setting [3]) and in the data set on No. 04 Coronavirus [2] (setting [3]) was 23.4 µg/mL (≈ 91.8 µM) throughout. The IC50 in the data set with No. 04 Coronavirus [1] (setting [4]) and in the data set on No. 04 Coronavirus [2] (setting [4]) was 11.7 µg/mL (≈ 45.8 µM) in each case. For the same compound, in the data set on HELA cell (HELA cells, CPE, Reed-Muench), the “minimum toxic dose (TD0)” value was 6000 ± 0 µg/mL. Further, in the data set with HELA cell (human), the “median toxic dose (TD50)” value came to 6000 ± 0 µg/mL.

These data come from patent publication US20080031868A1, “HUMAN LYSOZYME MEDICINE, ITS MANUFACTURING METHOD AND APPLICATION THEREOF” (priority 2005, published 2008).
